Source: the kinase profiling compilation of Christmann-Franck et al. (2016)
Values joined by “and” are separate entries in the source; they are usually repeats but may differ in a detail not shown here. Identical values can stand only once.

Tests used:
Assay in all cases: KINOMEscan competition binding
Details in all cases: compound 10.0 µM
[1] = target: AURKC (human) (UniProt Q9UQB9)
[2] = target: SLK (human) (UniProt Q9H2G2)
[3] = target: FRK (human) (UniProt P42685)
[4] = target: AKT2 (human) (UniProt P31751)
[5] = target: ALK (human) (UniProt Q9UM73)
[6] = target: NEK1 (human) (UniProt Q96PY6)
[7] = target: EPHB3 (human) (UniProt P54753)
[8] = target: WEE1 (human) (UniProt P30291)
[9] = target: RAF1 (human) (UniProt P04049)
[10] = target: MARK2 (human) (UniProt Q7KZI7)
[11] = target: HIPK1 (human) (UniProt Q86Z02)
[12] = target: MYO3A (human) (UniProt Q8NEV4)
[13] = target: RIOK3 (human) (UniProt O14730)
[14] = target: SIK2 (human) (UniProt Q9H0K1)
[15] = target: RIPK4 (human) (UniProt P57078)
[16] = target: STK35 (human) (UniProt Q8TDR2)
[17] = target: CLK1 (human) (UniProt P49759)
[18] = target: STK38L (human) (UniProt Q9Y2H1)
[19] = target: TYRO3 (human) (UniProt Q06418)
[20] = target: CAMK2G (human) (UniProt Q13555)
[21] = target: NTRK1 (human) (UniProt P04629)
[22] = target: MAP3K5 (human) (UniProt Q99683)
[23] = target: JAK3 JH1 catalytic (human) (UniProt P52333)
[24] = target: CSF1R (human) (UniProt P07333)
[25] = target: MAPK4 (human) (UniProt P31152)
[26] = target: INSR (human) (UniProt P06213)
[27] = target: PRKCQ (human) (UniProt Q04759)
[28] = target: EPHA8 (human) (UniProt P29322)
[29] = target: MUSK (human) (UniProt O15146)
[30] = target: CIT (human) (UniProt O14578)
[31] = target: CDK18 (human) (UniProt Q07002)
[32] = target: RPS6KA6 KD2 (human) (UniProt Q9UK32)
[33] = target: CLK3 (human) (UniProt P49761)
[34] = target: DCLK2 (human) (UniProt Q8N568)
[35] = target: TLK1 (human) (UniProt Q9UKI8)
[36] = target: ABL2 (human) (UniProt P42684)
[37] = target: STK10 (human) (UniProt O94804)
[38] = target: RIPK1 (human) (UniProt Q13546)
[39] = test system: ABL1 (human), P00519 [M351T]
[40] = test system: FLT3 (human), P36888 [N841I]

Chain of RIPK1 (human) (Q13546 whole entry, looked up): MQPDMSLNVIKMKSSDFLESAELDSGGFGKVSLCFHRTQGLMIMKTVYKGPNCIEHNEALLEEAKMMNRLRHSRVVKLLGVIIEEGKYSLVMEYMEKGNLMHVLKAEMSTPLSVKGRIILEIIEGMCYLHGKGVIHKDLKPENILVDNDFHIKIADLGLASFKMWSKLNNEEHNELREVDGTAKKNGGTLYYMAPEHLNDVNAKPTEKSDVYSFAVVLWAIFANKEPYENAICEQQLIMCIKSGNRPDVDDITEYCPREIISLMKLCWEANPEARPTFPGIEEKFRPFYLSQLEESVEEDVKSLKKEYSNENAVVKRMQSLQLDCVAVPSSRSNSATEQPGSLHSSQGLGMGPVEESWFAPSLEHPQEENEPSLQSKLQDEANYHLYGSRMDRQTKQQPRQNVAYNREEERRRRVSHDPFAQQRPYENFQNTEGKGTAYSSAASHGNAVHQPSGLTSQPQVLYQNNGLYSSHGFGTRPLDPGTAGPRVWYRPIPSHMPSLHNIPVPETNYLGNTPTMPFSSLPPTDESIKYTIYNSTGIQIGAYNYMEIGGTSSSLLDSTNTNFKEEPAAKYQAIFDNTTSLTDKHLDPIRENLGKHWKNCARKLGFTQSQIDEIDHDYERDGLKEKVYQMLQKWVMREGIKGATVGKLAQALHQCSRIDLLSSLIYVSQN
Chain of JAK3 JH1 catalytic (human) (P52333 whole entry, looked up): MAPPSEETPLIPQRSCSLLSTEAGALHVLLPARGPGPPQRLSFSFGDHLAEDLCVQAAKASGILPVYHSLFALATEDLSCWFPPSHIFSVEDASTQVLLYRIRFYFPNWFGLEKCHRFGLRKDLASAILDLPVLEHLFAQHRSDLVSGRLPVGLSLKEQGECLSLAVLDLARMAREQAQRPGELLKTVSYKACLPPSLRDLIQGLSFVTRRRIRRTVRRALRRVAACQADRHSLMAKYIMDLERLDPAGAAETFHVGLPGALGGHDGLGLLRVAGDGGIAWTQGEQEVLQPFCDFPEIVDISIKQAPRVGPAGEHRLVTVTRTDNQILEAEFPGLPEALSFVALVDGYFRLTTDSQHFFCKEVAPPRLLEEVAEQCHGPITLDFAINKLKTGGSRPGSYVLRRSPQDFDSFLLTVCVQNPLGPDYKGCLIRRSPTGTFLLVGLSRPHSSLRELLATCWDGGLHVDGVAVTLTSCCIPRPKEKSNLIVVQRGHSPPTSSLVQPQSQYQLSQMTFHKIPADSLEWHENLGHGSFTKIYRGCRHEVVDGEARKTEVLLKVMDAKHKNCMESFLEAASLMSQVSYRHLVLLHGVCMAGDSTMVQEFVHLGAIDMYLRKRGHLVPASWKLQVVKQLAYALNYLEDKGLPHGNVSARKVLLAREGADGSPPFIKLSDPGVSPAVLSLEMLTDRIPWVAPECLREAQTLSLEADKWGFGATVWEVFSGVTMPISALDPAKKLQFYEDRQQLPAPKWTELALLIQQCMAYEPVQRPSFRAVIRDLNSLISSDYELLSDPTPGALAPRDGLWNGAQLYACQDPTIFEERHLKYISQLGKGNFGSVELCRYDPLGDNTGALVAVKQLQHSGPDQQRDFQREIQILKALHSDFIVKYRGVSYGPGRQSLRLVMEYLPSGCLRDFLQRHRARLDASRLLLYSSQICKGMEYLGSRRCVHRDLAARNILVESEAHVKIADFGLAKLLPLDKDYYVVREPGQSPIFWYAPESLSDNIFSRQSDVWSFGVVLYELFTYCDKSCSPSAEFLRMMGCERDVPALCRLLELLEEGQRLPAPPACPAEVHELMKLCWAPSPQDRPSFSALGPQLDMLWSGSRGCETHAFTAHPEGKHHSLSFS
Chain of CLK1 (human) (P49759 whole entry, looked up): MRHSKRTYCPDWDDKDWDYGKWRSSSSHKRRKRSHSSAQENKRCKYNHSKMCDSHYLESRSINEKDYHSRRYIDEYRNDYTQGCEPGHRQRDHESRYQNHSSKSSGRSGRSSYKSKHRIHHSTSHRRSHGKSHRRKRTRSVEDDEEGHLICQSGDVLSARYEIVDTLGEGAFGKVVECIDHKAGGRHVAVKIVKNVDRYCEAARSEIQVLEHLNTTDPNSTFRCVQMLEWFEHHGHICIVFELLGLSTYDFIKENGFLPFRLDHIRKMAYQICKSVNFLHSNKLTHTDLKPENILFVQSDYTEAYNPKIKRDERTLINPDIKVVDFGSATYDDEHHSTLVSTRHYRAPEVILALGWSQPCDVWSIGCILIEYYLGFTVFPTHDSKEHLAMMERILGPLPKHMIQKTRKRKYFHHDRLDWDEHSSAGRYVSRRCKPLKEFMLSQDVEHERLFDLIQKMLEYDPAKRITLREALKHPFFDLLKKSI
Chain of RIOK3 (human) (O14730 whole entry, looked up): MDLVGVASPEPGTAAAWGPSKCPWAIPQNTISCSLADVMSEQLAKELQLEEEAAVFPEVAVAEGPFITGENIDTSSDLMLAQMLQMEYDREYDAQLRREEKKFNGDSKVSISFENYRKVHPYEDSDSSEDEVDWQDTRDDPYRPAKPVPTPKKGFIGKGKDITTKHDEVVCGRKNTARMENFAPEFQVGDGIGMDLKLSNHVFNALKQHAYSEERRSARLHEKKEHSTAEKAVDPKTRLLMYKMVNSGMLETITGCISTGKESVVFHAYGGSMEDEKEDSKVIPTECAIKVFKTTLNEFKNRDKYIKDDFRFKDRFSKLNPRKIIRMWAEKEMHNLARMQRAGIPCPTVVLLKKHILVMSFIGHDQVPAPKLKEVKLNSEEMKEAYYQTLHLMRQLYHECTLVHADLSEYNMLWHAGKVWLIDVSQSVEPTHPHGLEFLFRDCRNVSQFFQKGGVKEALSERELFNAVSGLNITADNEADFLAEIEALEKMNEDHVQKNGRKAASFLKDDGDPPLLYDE
Chain of MUSK (human) (O15146 whole entry, looked up): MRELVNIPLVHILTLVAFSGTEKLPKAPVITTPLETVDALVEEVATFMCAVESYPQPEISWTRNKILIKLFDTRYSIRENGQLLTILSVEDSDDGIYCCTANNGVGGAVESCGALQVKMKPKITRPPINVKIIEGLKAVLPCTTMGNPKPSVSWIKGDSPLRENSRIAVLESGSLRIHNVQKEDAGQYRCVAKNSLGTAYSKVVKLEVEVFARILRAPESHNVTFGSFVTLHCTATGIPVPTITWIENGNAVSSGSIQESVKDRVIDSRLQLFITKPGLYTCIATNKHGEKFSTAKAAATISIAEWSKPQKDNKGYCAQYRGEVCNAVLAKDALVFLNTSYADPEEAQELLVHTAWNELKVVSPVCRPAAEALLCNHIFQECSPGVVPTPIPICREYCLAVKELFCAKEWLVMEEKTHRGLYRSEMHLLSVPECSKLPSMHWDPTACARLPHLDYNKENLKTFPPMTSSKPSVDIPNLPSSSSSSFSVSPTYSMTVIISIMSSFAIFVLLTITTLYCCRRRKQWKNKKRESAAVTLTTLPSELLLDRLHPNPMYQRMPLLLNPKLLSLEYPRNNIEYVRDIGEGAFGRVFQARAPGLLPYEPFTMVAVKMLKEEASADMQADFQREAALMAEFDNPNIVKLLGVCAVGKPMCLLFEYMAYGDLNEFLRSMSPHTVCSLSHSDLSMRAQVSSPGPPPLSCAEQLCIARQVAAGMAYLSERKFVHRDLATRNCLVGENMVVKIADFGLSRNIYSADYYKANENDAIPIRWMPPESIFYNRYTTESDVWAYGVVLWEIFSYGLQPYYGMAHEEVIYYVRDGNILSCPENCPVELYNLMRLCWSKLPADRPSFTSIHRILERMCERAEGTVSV
Chain of CLK3 (human) (P49761 whole entry, looked up): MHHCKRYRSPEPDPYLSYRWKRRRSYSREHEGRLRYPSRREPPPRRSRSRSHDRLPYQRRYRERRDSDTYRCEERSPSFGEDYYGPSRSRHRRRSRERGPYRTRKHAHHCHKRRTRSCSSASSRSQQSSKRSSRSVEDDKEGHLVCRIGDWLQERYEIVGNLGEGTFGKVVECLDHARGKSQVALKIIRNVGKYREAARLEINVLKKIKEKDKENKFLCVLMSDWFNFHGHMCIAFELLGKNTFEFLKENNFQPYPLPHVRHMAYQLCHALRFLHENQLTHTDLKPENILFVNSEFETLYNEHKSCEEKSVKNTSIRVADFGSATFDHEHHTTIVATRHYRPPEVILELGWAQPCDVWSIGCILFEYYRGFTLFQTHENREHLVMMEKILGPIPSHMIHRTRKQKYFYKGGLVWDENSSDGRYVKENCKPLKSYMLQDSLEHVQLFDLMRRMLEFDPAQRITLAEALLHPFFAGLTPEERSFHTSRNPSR
Chain of DCLK2 (human) (Q8N568 whole entry, looked up): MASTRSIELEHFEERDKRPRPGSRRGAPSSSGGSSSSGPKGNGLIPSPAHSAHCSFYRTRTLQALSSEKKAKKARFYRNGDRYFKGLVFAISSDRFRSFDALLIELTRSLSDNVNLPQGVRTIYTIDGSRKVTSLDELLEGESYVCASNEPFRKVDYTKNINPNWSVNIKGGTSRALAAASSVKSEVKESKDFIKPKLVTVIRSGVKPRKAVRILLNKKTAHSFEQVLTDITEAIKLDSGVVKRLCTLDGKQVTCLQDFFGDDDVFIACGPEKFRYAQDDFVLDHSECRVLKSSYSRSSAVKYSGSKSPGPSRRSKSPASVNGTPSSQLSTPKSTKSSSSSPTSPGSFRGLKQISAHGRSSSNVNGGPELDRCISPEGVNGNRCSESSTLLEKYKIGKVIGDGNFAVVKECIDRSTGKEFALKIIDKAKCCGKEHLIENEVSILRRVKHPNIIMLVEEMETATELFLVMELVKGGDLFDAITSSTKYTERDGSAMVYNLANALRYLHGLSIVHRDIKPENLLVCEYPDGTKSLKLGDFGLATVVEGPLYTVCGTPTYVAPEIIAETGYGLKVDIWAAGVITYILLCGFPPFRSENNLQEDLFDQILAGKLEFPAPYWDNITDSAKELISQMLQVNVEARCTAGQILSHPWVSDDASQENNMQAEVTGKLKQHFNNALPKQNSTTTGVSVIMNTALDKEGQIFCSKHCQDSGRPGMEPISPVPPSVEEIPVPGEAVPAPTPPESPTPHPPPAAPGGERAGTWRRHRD

**Q.** `CN(C)C/C=C/C(=O)Nc1cccc(Nc2ncc3c(n2)N(C)c2ccccc2C(=O)N3C)c1` was tested. Which kinase still bound, per cent of control [1] did it give?
**A.** 9.2%

**Q.** What about the kinase still bound, per cent of control [2] of the same compound?
**A.** 7.3%

**Q.** What about the kinase still bound, per cent of control [3] of the same compound?
**A.** 18%

**Q.** And the kinase still bound, per cent of control [4]?
**A.** 99%

**Q.** What about the kinase still bound, per cent of control [5] of the same compound?
**A.** 51%

**Q.** What about the kinase still bound, per cent of control [6] of the same compound?
**A.** 69%

**Q.** And the kinase still bound, per cent of control [7]?
**A.** 88%

**Q.** What about the kinase still bound, per cent of control [8] of the same compound?
**A.** 100%

**Q.** What about the kinase still bound, per cent of control [9] of the same compound?
**A.** 96%

**Q.** And the kinase still bound, per cent of control [10]?
**A.** 21%

**Q.** What about the kinase still bound, per cent of control [11] of the same compound?
**A.** 76%

**Q.** And the kinase still bound, per cent of control [12]?
**A.** 100%

**Q.** What about the kinase still bound, per cent of control [13] of the same compound?
**A.** 16%

**Q.** And the kinase still bound, per cent of control [14]?
**A.** 9%

**Q.** And the kinase still bound, per cent of control [15]?
**A.** 1%

**Q.** What about the kinase still bound, per cent of control [16] of the same compound?
**A.** 89%

**Q.** What about the kinase still bound, per cent of control [17] of the same compound?
**A.** 50%

**Q.** And the kinase still bound, per cent of control [18]?
**A.** 54%

**Q.** And the kinase still bound, per cent of control [19]?
**A.** 100%

**Q.** And the kinase still bound, per cent of control [20]?
**A.** 46%

**Q.** What about the kinase still bound, per cent of control [21] of the same compound?
**A.** 18%

**Q.** What about the kinase still bound, per cent of control [22] of the same compound?
**A.** 100%

**Q.** What about the kinase still bound, per cent of control [23] of the same compound?
**A.** 1.2%

**Q.** And the kinase still bound, per cent of control [24]?
**A.** 0.1%

**Q.** And the kinase still bound, per cent of control [25]?
**A.** 100%

**Q.** What about the kinase still bound, per cent of control [26] of the same compound?
**A.** 100%

**Q.** What about the kinase still bound, per cent of control [27] of the same compound?
**A.** 83%

**Q.** What about the kinase still bound, per cent of control [28] of the same compound?
**A.** 90%

**Q.** What about the kinase still bound, per cent of control [29] of the same compound?
**A.** 100%

**Q.** And the kinase still bound, per cent of control [30]?
**A.** 86%

**Q.** What about the kinase still bound, per cent of control [31] of the same compound?
**A.** 100%

**Q.** And the kinase still bound, per cent of control [32]?
**A.** 0.6%

**Q.** And the kinase still bound, per cent of control [33]?
**A.** 82%

**Q.** And the kinase still bound, per cent of control [34]?
**A.** 0.5%

**Q.** And the kinase still bound, per cent of control [35]?
**A.** 100%

**Q.** What about the kinase still bound, per cent of control [36] of the same compound?
**A.** 1.4%

**Q.** What about the kinase still bound, per cent of control [37] of the same compound?
**A.** 30%

**Q.** What about the kinase still bound, per cent of control [38] of the same compound?
**A.** 28%

**Q.** And the kinase still bound, per cent of control [39]?
**A.** 0.75%

**Q.** And the kinase still bound, per cent of control [40]?
**A.** 9.2%

**Q.** What does the source list for `N#Cc1c(NC(=O)c2cccc3ccccc23)sc2c1CCCC2`?
**A.** kinase still bound, per cent of control [1]: 87%; kinase still bound, per cent of control [2]: 82%; kinase still bound, per cent of control [3]: 58%; kinase still bound, per cent of control [4]: 100%; kinase still bound, per cent of control [5]: 100%; kinase still bound, per cent of control [6]: 100%; kinase still bound, per cent of control [7]: 98%; kinase still bound, per cent of control [8]: 64%; kinase still bound, per cent of control [9]: 100%; kinase still bound, per cent of control [10]: 100%; kinase still bound, per cent of control [11]: 91%; kinase still bound, per cent of control [12]: 42%; kinase still bound, per cent of control [13]: 100%; kinase still bound, per cent of control [14]: 78%; kinase still bound, per cent of control [15]: 96%; kinase still bound, per cent of control [16]: 64%; kinase still bound, per cent of control [17]: 69%; kinase still bound, per cent of control [18]: 98%; kinase still bound, per cent of control [19]: 76%; kinase still bound, per cent of control [20]: 94%; kinase still bound, per cent of control [21]: 100%; kinase still bound, per cent of control [22]: 94%; kinase still bound, per cent of control [23]: 98%; kinase still bound, per cent of control [24]: 100% and 84%; kinase still bound, per cent of control [25]: 90%; kinase still bound, per cent of control [26]: 100%; kinase still bound, per cent of control [27]: 86%; kinase still bound, per cent of control [28]: 79%; kinase still bound, per cent of control [29]: 97%; kinase still bound, per cent of control [30]: 100%; kinase still bound, per cent of control [31]: 95%; kinase still bound, per cent of control [32]: 77%; kinase still bound, per cent of control [33]: 72%; kinase still bound, per cent of control [34]: 100%; kinase still bound, per cent of control [35]: 76%; kinase still bound, per cent of control [36]: 86%; kinase still bound, per cent of control [37]: 67%; kinase still bound, per cent of control [38]: 87%; kinase still bound, per cent of control [39]: 98%; kinase still bound, per cent of control [40]: 86%

**Q.** For `Cc1ccc2nc(NCCN)c3ncc(C)n3c2c1`, which kinase still bound, per cent of control [1] is on record?
**A.** 100%

**Q.** And the kinase still bound, per cent of control [2]?
**A.** 100%

**Q.** What about the kinase still bound, per cent of control [3] of the same compound?
**A.** 100%

**Q.** And the kinase still bound, per cent of control [4]?
**A.** 100%

**Q.** And the kinase still bound, per cent of control [5]?
**A.** 100%

**Q.** What about the kinase still bound, per cent of control [6] of the same compound?
**A.** 78%

**Q.** And the kinase still bound, per cent of control [7]?
**A.** 100%

**Q.** And the kinase still bound, per cent of control [8]?
**A.** 100%

**Q.** What about the kinase still bound, per cent of control [9] of the same compound?
**A.** 100%

**Q.** And the kinase still bound, per cent of control [10]?
**A.** 100%

**Q.** And the kinase still bound, per cent of control [11]?
**A.** 21%

**Q.** And the kinase still bound, per cent of control [12]?
**A.** 100%

**Q.** And the kinase still bound, per cent of control [13]?
**A.** 100%

**Q.** And the kinase still bound, per cent of control [14]?
**A.** 82%

**Q.** What about the kinase still bound, per cent of control [15] of the same compound?
**A.** 100%

**Q.** What about the kinase still bound, per cent of control [16] of the same compound?
**A.** 90%

**Q.** What about the kinase still bound, per cent of control [17] of the same compound?
**A.** 72%

**Q.** What about the kinase still bound, per cent of control [18] of the same compound?
**A.** 100%

**Q.** What about the kinase still bound, per cent of control [19] of the same compound?
**A.** 100%

**Q.** What about the kinase still bound, per cent of control [20] of the same compound?
**A.** 100%

**Q.** And the kinase still bound, per cent of control [21]?
**A.** 100%

**Q.** What about the kinase still bound, per cent of control [22] of the same compound?
**A.** 80%

**Q.** What about the kinase still bound, per cent of control [23] of the same compound?
**A.** 100%

**Q.** And the kinase still bound, per cent of control [24]?
**A.** 16%

**Q.** And the kinase still bound, per cent of control [25]?
**A.** 89%

**Q.** What about the kinase still bound, per cent of control [26] of the same compound?
**A.** 99%

**Q.** And the kinase still bound, per cent of control [27]?
**A.** 99%

**Q.** And the kinase still bound, per cent of control [28]?
**A.** 100%

**Q.** What about the kinase still bound, per cent of control [29] of the same compound?
**A.** 100%

**Q.** What about the kinase still bound, per cent of control [30] of the same compound?
**A.** 100%

**Q.** And the kinase still bound, per cent of control [31]?
**A.** 100%

**Q.** What about the kinase still bound, per cent of control [32] of the same compound?
**A.** 40%

**Q.** What about the kinase still bound, per cent of control [33] of the same compound?
**A.** 47%

**Q.** What about the kinase still bound, per cent of control [34] of the same compound?
**A.** 100%

**Q.** What about the kinase still bound, per cent of control [35] of the same compound?
**A.** 82%

**Q.** And the kinase still bound, per cent of control [36]?
**A.** 100%

**Q.** And the kinase still bound, per cent of control [37]?
**A.** 100%

**Q.** What about the kinase still bound, per cent of control [38] of the same compound?
**A.** 100%

**Q.** What about the kinase still bound, per cent of control [39] of the same compound?
**A.** 100%

**Q.** What about the kinase still bound, per cent of control [40] of the same compound?
**A.** 41%
